# Measured values as given in ChEMBL document CHEMBL1201862, “PubChem BioAssay data set” (2004).
#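 Five compound concentrations were applied to cells in 96-well plates for 48 hours; endpoints were derived by simple linear interpolation of the resulting dose-response curve. At the GI50, growth is halved.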 Active and inactive are the calls of the source. Rule as the data show it: active = GI50 up to about 1.1 µM and inactive = higher.
# Assays:
# Experiment in all cases: DTP human tumour cell line panel, 48 h
# [1] = system: A498
# [2] = system: UACC-257
# [3] = system: SK-MEL-2
# [4] = system: SNB-19
# [5] = system: NCI-H23
# [6] = system: NCI-H460
# [7] = system: OVCAR-5
# [8] = system: HOP-92
# [9] = system: HCT-15
# [10] = system: Malme-3M
# [11] = system: SNB-75
# [12] = system: SF-539
# [13] = system: MOLT-4
# [14] = system: SF-268
# [15] = system: Hs-578T
# [16] = system: UO-31
# [17] = system: U-251
# [18] = system: TK-10
# [19] = system: SK-OV-3
# [20] = system: OVCAR-4
# [21] = system: SW-620
# [22] = system: HOP-62
# [23] = system: SF-295
# [24] = system: RXF 393
# [25] = system: DU-145
# [26] = system: EKVX
# [27] = system: KM12
# [28] = system: RPMI-8226
# [29] = system: OVCAR-8
# [30] = system: A549
# [31] = system: NCI-H522
# [32] = system: HT-29
# [33] = system: MCF7
# [34] = system: HCC 2998
# [35] = system: CAKI-1
# [36] = system: PC-3
# [37] = system: MDA-MB-231
# [38] = system: SK-MEL-28
# [39] = system: COLO 205
# [40] = system: T47D
# [41] = system: NCI-H226
# [42] = system: MDA-N
# [43] = system: HCT-116
# [44] = system: SK-MEL-5
# [45] = system: HL-60
# [46] = system: NCI/ADR-RES
# [47] = system: SN12C
# [48] = system: ACHN
# [49] = system: MDA-MB-435
# [50] = system: IGROV-1
# [51] = system: OVCAR-3
# [52] = system: K562
# [53] = system: BT-549
# [54] = system: M14
# [55] = system: LOX IMVI
# [56] = system: 786-0
# [57] = system: UACC-62
# [58] = system: SR
# [59] = system: CCRF-CEM
compound,measurement,setting,value
COc1cc(/C=C2\C[C@H]3[C@@H]4CC=C5C[C@@H](O)CC[C@]5(C)[C@H]4CC[C@]3(C)[C@H]2O)cc(OC)c1OC,GI50,[1],20.9 µM (inactive)
same,GI50,[2],14.8 µM (inactive)
same,GI50,[3],12.7 µM (inactive)
same,GI50,[4],50.1 µM (inactive)
same,GI50,[5],10.3 µM (inactive)
same,GI50,[6],12 µM (inactive)
same,GI50,[7],26.3 µM (inactive)
same,GI50,[8],12.7 µM (inactive)
same,GI50,[9],7.05 µM
same,GI50,[10],33.1 µM (inactive)
same,GI50,[11],9.06 µM (inactive)
same,GI50,[12],14.3 µM (inactive)
same,GI50,[13],5.5 µM (inactive)
same,GI50,[14],54.8 µM (inactive)
same,GI50,[15],19.9 µM (inactive)
same,GI50,[16],13 µM (inactive)
same,GI50,[17],11 µM (inactive)
same,GI50,[18],14.1 µM (inactive)
same,GI50,[19],25.5 µM (inactive)
same,GI50,[20],7.45 µM (inactive)
same,GI50,[21],26.2 µM (inactive)
same,GI50,[22],10.8 µM (inactive)
same,GI50,[23],4.84 µM (inactive)
same,GI50,[24],5.58 µM (inactive)
same,GI50,[25],18.3 µM (inactive)
same,GI50,[26],34 µM (inactive)
same,GI50,[27],10.1 µM (inactive)
same,GI50,[28],4.92 µM (inactive)
same,GI50,[29],19 µM (inactive)
same,GI50,[30],9.79 µM (inactive)
same,GI50,[31],19.1 µM (inactive)
same,GI50,[32],11.1 µM (inactive)
same,GI50,[33],8.34 µM (inactive)
same,GI50,[34],17.3 µM (inactive)
same,GI50,[35],20.2 µM (inactive)
same,GI50,[36],16.6 µM (inactive)
same,GI50,[37],11.4 µM (inactive)
same,GI50,[38],25.2 µM (inactive)
same,GI50,[39],7.31 µM (inactive)
same,GI50,[40],3.48 µM (inactive)
same,GI50,[41],11 µM (inactive)
same,GI50,[42],21.9 µM (inactive)
same,GI50,[43],8.05 µM (inactive)
same,GI50,[44],6.28 µM (inactive)
same,GI50,[45],4.91 µM (inactive)
same,GI50,[46],12.9 µM (inactive)
same,GI50,[47],38.3 µM (inactive)
same,GI50,[48],6.27 µM (inactive)
same,GI50,[49],20 µM (inactive)
same,GI50,[50],27.8 µM (inactive)
same,GI50,[51],12.2 µM (inactive)
same,GI50,[52],5.97 µM (inactive)
same,GI50,[53],15.4 µM (inactive)
same,GI50,[54],20.7 µM (inactive)
same,GI50,[55],8.53 µM (inactive)
same,GI50,[56],10.8 µM (inactive)
same,GI50,[57],10.3 µM (inactive)
Cc1nc2c(=O)n(-c3ccccc3)c(=O)n(-c3ccccc3)c2o1,GI50,[1],> 100 µM (inactive)
same,GI50,[2],> 100 µM (inactive)
same,GI50,[3],> 100 µM (inactive)
same,GI50,[4],> 100 µM (inactive)
same,GI50,[5],> 100 µM (inactive)
same,GI50,[58],> 100 µM (inactive)
same,GI50,[6],> 100 µM (inactive)
same,GI50,[7],> 100 µM (inactive)
same,GI50,[8],> 100 µM (inactive)
same,GI50,[9],> 100 µM
same,GI50,[10],> 100 µM (inactive)
same,GI50,[11],> 100 µM (inactive)
same,GI50,[12],> 100 µM (inactive)
same,GI50,[13],> 100 µM (inactive)
same,GI50,[14],> 100 µM (inactive)
same,GI50,[15],> 100 µM (inactive)
same,GI50,[16],> 100 µM (inactive)
same,GI50,[17],> 100 µM (inactive)
same,GI50,[18],58.3 µM (inactive)
same,GI50,[19],> 100 µM (inactive)
same,GI50,[20],> 100 µM (inactive)
same,GI50,[21],> 100 µM (inactive)
same,GI50,[22],> 100 µM (inactive)
same,GI50,[23],> 100 µM (inactive)
same,GI50,[24],> 100 µM (inactive)
same,GI50,[26],> 100 µM (inactive)
same,GI50,[27],> 100 µM (inactive)
same,GI50,[28],> 100 µM (inactive)
same,GI50,[29],> 100 µM (inactive)
same,GI50,[30],> 100 µM (inactive)
same,GI50,[31],> 100 µM (inactive)
same,GI50,[32],> 100 µM (inactive)
same,GI50,[33],> 100 µM (inactive)
same,GI50,[34],> 100 µM (inactive)
same,GI50,[35],> 100 µM (inactive)
same,GI50,[36],> 100 µM (inactive)
same,GI50,[37],> 100 µM (inactive)
same,GI50,[39],> 100 µM (inactive)
same,GI50,[40],> 100 µM (inactive)
same,GI50,[41],> 100 µM (inactive)
same,GI50,[42],> 100 µM (inactive)
same,GI50,[43],> 100 µM (inactive)
same,GI50,[44],> 100 µM (inactive)
same,GI50,[46],> 100 µM (inactive)
same,GI50,[47],> 100 µM (inactive)
same,GI50,[48],> 100 µM (inactive)
same,GI50,[49],> 100 µM (inactive)
same,GI50,[50],> 100 µM (inactive)
same,GI50,[51],> 100 µM (inactive)
same,GI50,[52],> 100 µM (inactive)
same,GI50,[53],> 100 µM (inactive)
same,GI50,[54],> 100 µM (inactive)
same,GI50,[59],> 100 µM (inactive)
same,GI50,[55],> 100 µM (inactive)
same,GI50,[56],> 100 µM (inactive)
same,GI50,[57],> 100 µM (inactive)
